Laboratory results taken from US20210214354A1, “IMIDAZOQUINOLINE COMPOUNDS AND USES THEREOF” (Birdie Biopharmaceuticals, Inc., priority 2018, published 2021).
Read-outs that look alike come from different tables or passages of the source.

Experiments:
[1] = TLR7/8 agonist PK study in SD rats (i.v.); settings: 0.08 mg/kg, plasma; for MTRinf: SD rats, i.v.; for AUC(0-inf) / AUC(0-t) / C0 / MRT last / Vd / clearance / half-life: both, Sprague-Dawley (SD), rat, iv
Protocol: (§3) SPF SD rats were purchased from BioLASCO Taiwan Co. Ltd. Animals were randomly assigned to five groups with 3 males and 3 females in each group before dosing. The body weight variation of animals used were in an interval within ±20 percent of the mean weight for each gender.
(§4) Blood samples (200-350 μL/time point) were obtained through tail vein at pre-dose and 2 min, 5 min, 15 min, 30 min, 1 hr, 2 hr, 4 hr, 6 hr, 8 hr, 12 hr and 24 hr post dosing. The blood samples were collected into tubes containing K2EDTA and maintained on ice no more than 30 minutes, then centrifuged (1500-1750 xg, 15 min, 2-8° C.) for plasma harvest.
(§5) The study samples were prepared and analyzed in parallel using liquid chromatography-tandem mass spectrometry. In pharmacokinetics evaluation following the determined concentrations in rat plasma, pharmacokinetic parameters were calculated using WinNonlin (Pharsight Corporation, version 6.3) with non-compartmental methods.

[2] = in vivo; settings: both, Sprague-Dawley (SD), rat, iv, 0.08 mg/kg
Protocol: as §3, §4, §5

[3] = both, Sprague-Dawley (SD), rat, in vivo, iv, 0.08 mg/kg
Protocol: as §3, §4, §5

[4] = biological target: T1, hTLR7 (Homo sapiens, UniProt Q9NYK1); assay: TLR7/8 agonist potency assay in HEK-Blue hTLR7 cells (SEAP reporter); type: cell-based; settings: about 16 hrs incubation, SEAP at 635 nm; for EC50: read-out: TLR7 Agonistic EC50 (converted)
T1 construct: expressed in transfected cells; host or cells: HEK-Blue hTLR7 cells (HEK293-derived SEAP reporter line; own knowledge: commercial line stably transfected with the human TLR7 gene)
T1 sequence (Q9NYK1 27-1049): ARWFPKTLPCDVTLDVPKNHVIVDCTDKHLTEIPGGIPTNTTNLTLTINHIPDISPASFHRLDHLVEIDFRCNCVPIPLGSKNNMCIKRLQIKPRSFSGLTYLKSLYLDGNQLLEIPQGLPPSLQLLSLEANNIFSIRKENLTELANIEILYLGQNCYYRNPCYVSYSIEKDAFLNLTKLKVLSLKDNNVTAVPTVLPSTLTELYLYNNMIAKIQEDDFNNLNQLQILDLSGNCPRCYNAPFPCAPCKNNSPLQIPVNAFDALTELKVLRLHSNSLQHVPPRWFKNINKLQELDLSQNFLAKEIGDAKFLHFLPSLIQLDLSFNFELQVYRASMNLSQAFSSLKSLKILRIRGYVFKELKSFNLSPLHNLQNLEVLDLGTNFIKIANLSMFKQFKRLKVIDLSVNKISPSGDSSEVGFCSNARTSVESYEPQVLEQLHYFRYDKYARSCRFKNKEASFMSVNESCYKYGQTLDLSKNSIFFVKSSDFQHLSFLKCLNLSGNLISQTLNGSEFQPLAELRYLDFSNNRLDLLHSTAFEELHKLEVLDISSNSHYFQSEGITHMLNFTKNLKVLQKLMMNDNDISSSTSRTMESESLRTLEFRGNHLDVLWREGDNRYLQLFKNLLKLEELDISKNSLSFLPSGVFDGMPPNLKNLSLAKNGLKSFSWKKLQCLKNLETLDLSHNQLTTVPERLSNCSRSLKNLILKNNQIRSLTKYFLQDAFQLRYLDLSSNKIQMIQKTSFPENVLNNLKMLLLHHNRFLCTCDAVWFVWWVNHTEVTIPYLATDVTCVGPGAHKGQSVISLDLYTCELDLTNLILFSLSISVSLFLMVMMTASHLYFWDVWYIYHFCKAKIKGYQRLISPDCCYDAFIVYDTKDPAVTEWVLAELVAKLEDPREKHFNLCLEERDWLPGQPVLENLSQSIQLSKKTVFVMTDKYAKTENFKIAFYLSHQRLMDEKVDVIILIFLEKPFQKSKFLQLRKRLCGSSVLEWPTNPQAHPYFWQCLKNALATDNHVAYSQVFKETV
Protocol: (§1) HEK-Blue TLR7 cells can serve to measure the bioactivity of TLR7 through the secretion of embryonic alkalinephosphatase (SEAP) upon NF-κB activation following TLR7 stimulation. Water was used as negative control. After about 16 hrs incubation at 37° C. in 5% CO2, the SEAP was determined by using a spectrophotometer at 635 nm.
(§2) The dose-response curves were fit with four parameter logistic curve (SigmaPlot, version 9.0).

[5] = biological target: T2, hTLR8 (Homo sapiens, UniProt Q9NR97); assay: TLR7/8 agonist potency assay in HEK-Blue hTLR8 cells (SEAP reporter); type: cell-based; settings: about 16 hrs incubation, SEAP at 635 nm, read-out: TLR8 Agonistic EC50 (converted)
T2 construct: expressed in transfected cells; host or cells: HEK-Blue hTLR8 cells (HEK293-derived SEAP reporter line; own knowledge: commercial line stably transfected with the human TLR8 gene)
T2 sequence (Q9NR97 27-1041): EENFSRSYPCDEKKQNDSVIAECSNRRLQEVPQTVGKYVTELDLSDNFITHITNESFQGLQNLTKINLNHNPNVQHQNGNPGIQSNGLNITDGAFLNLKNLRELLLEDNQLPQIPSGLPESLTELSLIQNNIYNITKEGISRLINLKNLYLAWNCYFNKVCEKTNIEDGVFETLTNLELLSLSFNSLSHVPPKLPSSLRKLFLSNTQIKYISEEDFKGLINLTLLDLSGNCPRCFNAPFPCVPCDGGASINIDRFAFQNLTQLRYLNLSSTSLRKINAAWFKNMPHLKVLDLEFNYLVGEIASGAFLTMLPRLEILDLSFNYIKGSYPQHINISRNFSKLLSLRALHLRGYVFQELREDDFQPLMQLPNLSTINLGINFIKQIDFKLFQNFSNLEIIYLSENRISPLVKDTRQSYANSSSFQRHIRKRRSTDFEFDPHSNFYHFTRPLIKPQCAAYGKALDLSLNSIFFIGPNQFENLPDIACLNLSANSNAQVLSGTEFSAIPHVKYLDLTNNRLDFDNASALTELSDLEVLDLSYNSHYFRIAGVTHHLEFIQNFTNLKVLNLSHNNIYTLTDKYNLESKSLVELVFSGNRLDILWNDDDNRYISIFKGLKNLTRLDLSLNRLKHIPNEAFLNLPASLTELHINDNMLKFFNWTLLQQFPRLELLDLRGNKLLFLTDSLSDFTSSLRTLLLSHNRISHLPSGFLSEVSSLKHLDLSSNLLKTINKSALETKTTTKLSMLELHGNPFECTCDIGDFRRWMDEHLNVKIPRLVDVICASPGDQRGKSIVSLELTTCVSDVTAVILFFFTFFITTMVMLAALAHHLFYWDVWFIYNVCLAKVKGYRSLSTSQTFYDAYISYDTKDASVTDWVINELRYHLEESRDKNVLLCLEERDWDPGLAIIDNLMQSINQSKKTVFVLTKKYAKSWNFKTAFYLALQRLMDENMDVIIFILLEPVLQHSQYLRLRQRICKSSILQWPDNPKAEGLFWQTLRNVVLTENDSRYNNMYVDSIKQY
Protocol: as §1, with “HEK-Blue hTLR8” for “HEK-Blue TLR7”, “of TLR8” for “of TLR7”, “embryonic alkaline phosphatase” for “embryonic alkalinephosphatase”, “following TLR8” for “following TLR7”
as §2

SMILES | MTRinf [1] [h] | AUC(0-inf) [1] [ng·h/mL] | AUC(0-t) [1] [ng·h/mL] | C0 [1] [ng/mL] | MRT last [1] [h] | Vd [1] [L/kg] | clearance [1] [mL/min/kg] | half-life [1] [h] | EC50 [4] [nM] | EC50 [5] [nM] | further results
CCS(=O)(=O)Cc1nc2c(N)nc3ccccc3c2n1CC(C)(C)O [Compound 6] | 1.71 ± 0.22 | 82.8 ± 8.29 | 81.6 ± 8.49 | 224 ± 53.9 | 1.28 ± 0.19 | 1.82 | 17.1 | 6.46 ± 1.01 |  |  | 
CCOCc1nc2c(N)nc3ccccc3c2n1CC(C)(C)O [Resiquimod] |  |  |  |  |  |  |  |  |  |  | AUC(0-inf) [2]: 66.2 ± 4.81 ng·h/mL; AUC(0-t) [2]: 62.5 ± 4.49 ng·h/mL; C0 [2]: 258 ± 47.6 ng/mL; MRT last [2]: 1.87 ± 0.16 h; Vd [2]: 4.67 L/kg; clearance [2]: 21.6 mL/min/kg; half-life [2]: 8.46 ± 1.72 h; MTRinf [3]: 3.87 ± 1.20 h
CC(C)(O)Cn1c(COC2CC2)nc2c(N)nc3ccccc3c21 [Compound 3] | 4.90 ± 0.87 | 124 ± 9.96 | 118 ± 8.92 | 237 ± 44.2 | 3.15 ± 0.18 | 3.13 | 11.9 | 7.53 ± 1.03 | 124 | 1580 | 
CCCCNc1nc(N)c2[nH]c(=O)n(Cc3ccc(C(=O)NCC(=O)O)cc3)c2n1 [CL264, reference compound] |  |  |  |  |  |  |  |  |  |  | TLR7 Agonistic EC50 [4]: 0.2602 ± 0.0124 µg/mL

The next lines start with results.

MTRinf [1] [h] | AUC(0-inf) [1] [ng·h/mL] | AUC(0-t) [1] [ng·h/mL] | C0 [1] [ng/mL] | MRT last [1] [h] | Vd [1] [L/kg] | clearance [1] [mL/min/kg] | half-life [1] [h] | EC50 [4] [nM] | EC50 [5] [nM] | SMILES | further results
3.87 ± 1.20 | 66.2 ± 4.81 | 62.5 ± 4.49 | 258 ± 47.6 | 1.87 ± 0.16 | 4.67 | 21.6 | 8.46 ± 1.72 |  |  | CCSCc1nc2c(N)nc3ccccc3c2n1CC(C)(C)O [Compound 4] | 
 |  |  |  |  |  |  |  | 98.3 | 1600 | CC(C)(O)Cn1c(COCC(F)(F)F)nc2c(N)nc3ccccc3c21 [Compound 2] | 
